From publication PMC9317316, “Synthesis and Evaluation of Some New 4H-Pyran Derivatives as Antioxidant, Antibacterial and Anti-HCT-116 Cells of CRC, with Molecular Docking, Antiproliferative, Apoptotic and ADME Investigations” (Pharmaceuticals, 2022)
“And” between values parts separate entries of the source, which are not always exact repeats. Identical values can stand only once. Like-named read-outs stand apart in the source and are kept apart here.

Legend:
[1] = DPPH radical scavenging assay; conditions: for IC50: 0.03 to 1 mg/mL, 1 h, mean ± SD, triplicate, read-out: IC50 (mM) for DPPH Scavenging Potency
Method: The IC50 values for DPPH were calculated from the plot of the scavenging effect against the compound concentration.
The compounds’ capacities to scavenge the stable radical 1,1 diphenyl-2-picrylhydrazyl (DPPH) formed in solution by donation of a hydrogen atom or an electron was investigated according to the method described by Bersuder and coworkers. Due to the fact that the initial blue/purple solution of diphenyl picrylhydrazine changes to yellow in the presence of compounds with a capacity to scavenge DPPH free radicals, this reaction is used as a measure of a compound’s ability to scavenge any free radical. Briefly, a 0.5 mL volume of DPPH ethanolic solution was mixed with an equal volume of each sample concentration (0.03 to 1 mg/mL), shaken strongly and incubated at room temperature for 1 h in darkness. The absorbance of the residual DPPH radicals was measured at 519 nm and compared to that of the control (without the tested compound). DPPH radical scavenging was calculated using the following formula: Scavenging effect (%) = (1 − Acompound/AControl) × 100, where Acompound and Acontrol are the absorbances of the tested compound and of the control, respectively. A plot of the scavenging effect (%) versus the sample concentration was also performed to determine the compound concentration providing 50% inhibition (IC50).

[2] = Reducing power assay (FRAC, Fe3+ to Fe2+); conditions: 0-1 mg/mL, absorbance 700 nm
Method: Secondly, FRAC was determined over the concentration range of 0.0−1 mg/mL via monitoring Fe^3+−Fe^2+ transformation in the presence of the studied compounds and the reference antioxidant BHT to estimate the values of efficient concentration (EC50), expressed in mM.
The reducing power of the studied compounds was assessed according to Oyaizu’s method. Briefly, different concentrations (ranging from 0 to 1 mg/mL) of each tested compound were first mixed with 1 mL of 0.2 M sodium phosphate buffer (pH 6.6) and 1 mL of 1% potassium ferricyanide (K3Fe(CN)6) and incubated at 50 °C for 20 min. After the addition of 1.25 mL of 20% trichloroacetic acid (TCA), the mixture was centrifuged for 10 min at 3000 rpm and the upper layer solution was then mixed with 0.5 mL of 0.1% fresh ferric chloride and an equal volume of deionized water. Finally, the absorption of the resulting mixture was measured at 700 nm using a UV spectrophotometer against distilled water as the blank, while butylated hydroxytoluene (BHT) was used as a positive control. The sample ferric reducing power capability was indicated by increased absorbance.

B. cereus (ATCC 14579) [3] = assay: Antibacterial agar diffusion method (inhibition zone); assay type: cell-based
Method: (§1) The results for the in vitro antibacterial properties of the synthesized compounds against five Gram-positive and four Gram-negative human-pathogenic strains, which were assessed by both the agar diffusion method (based on inhibition zone (IZ)) and the broth dilution bioassay (for the determination of the half-maximal inhibitory concentration (IC50) values), using ampicillin as the reference antibiotic drug, are shown in Table 2 and Table 3.
(§2) The antibacterial activity of all synthesized compounds was evaluated against the Gram-negative strains E. coli (ATCC 25966), K. pneumonia (ATCC 700603), P. aeruginosa (ATCC 27853) and S. enteric (ATCC 43972) and against the Gram-positive strains B. cereus (ATCC 14579), B. subtilis (ATCC 6633), E. faecalis (ATCC 29122), S. aureus (ATCC 25923) and S. epidermidis (ATCC 14990), using the agar diffusion method through measuring the appearance of the inhibition zone on the surface of the top agar, as reported by Berghe and Vlietinck. Ampicillin (10 µg/well) was used as the positive reference standard. Bacterial viability was also investigated by determining the colony-forming ability (CFU) of bacteria incubated at different time intervals without or with appropriate amounts of the compound, which were mixed with 2 ×10^7 CFU/mL in sterile BHI and incubated under shaking for 60 min at 37 °C. Samples were serially diluted into sterile BHI, streaked onto media agar plates and incubated for 24 h at 37 °C. The antibacterial potency of the tested compounds was expressed as the residual number of CFUs with reference to the initial inoculums. The results presented as the half-maximal (50 %) inhibitory concentration (IC50) values are the means of three different measurements.

B. subtilis (ATCC 6633) [4] = assay: as above; assay type: cell-based
Method: as §1, §2

E. coli (ATCC 25966) [5] = assay: as above; assay type: cell-based; conditions: E. coil (ATCC 25966)
Method: as §1, §2

E. faecalis (ATCC 29122) [6] = assay: as above; assay type: cell-based
Method: as §1, §2

[7] = system: K. pneumonia (ATCC 700603); assay: as above; assay type: cell-based
Method: as §1, §2

[8] = system: P. aeruginosa (ATCC 27853); assay: as above; assay type: cell-based
Method: as §1, §2

S. aureus (ATCC 25923) [9] = assay: as above; assay type: cell-based
Method: as §1, §2

S. enteric (ATCC 43972) [10] = assay: as above; assay type: cell-based
Method: as §1, §2

[11] = system: S. epidermidis (ATCC 14990); assay: as above; assay type: cell-based
Method: as §1, §2

B. cereus (ATCC 14579) [12] = assay: Antibacterial viability (CFU) assay, IC50; assay type: cell-based; conditions: Bacillus cereus, ATCC14579
Method: as §1, §2

B. subtilis (ATCC 6633) [13] = assay: Antibacterial viability (CFU) assay, IC50; assay type: cell-based; conditions: Bacillus subtilis, ATCC6633, B. subtilis (ATCC 6633)
Method: as §1, §2

E. coli (ATCC 25966) [14] = assay: Antibacterial viability (CFU) assay, IC50; assay type: cell-based; conditions: Escherichia coli, ATCC25966; E. coil (ATCC 25966)
Method: as §1, §2

E. faecalis (ATCC 29122) [15] = assay: Antibacterial viability (CFU) assay, IC50; assay type: cell-based; conditions: Enterococcus faecalis, ATCC29122
Method: as §1, §2

[16] = system: K. pneumonia (ATCC 700603); assay: Antibacterial viability (CFU) assay, IC50; assay type: cell-based; conditions: Klebsiella pneumoniae, ATCC700603
Method: as §1, §2

[17] = system: P. aeruginosa (ATCC 27853); assay: Antibacterial viability (CFU) assay, IC50; assay type: cell-based; conditions: Pseudomonas aeruginosa, ATCC27853
Method: as §1, §2

S. aureus (ATCC 25923) [18] = assay: Antibacterial viability (CFU) assay, IC50; assay type: cell-based; conditions: Staphylococcus aureus, ATCC25923
Method: as §1, §2

S. enteric (ATCC 43972) [19] = assay: Antibacterial viability (CFU) assay, IC50; assay type: cell-based; conditions: read-out: IC50
Method: as §1, §2

[20] = system: S. epidermidis (ATCC 14990); assay: Antibacterial viability (CFU) assay, IC50; assay type: cell-based; conditions: Staphylococcus epidermidis, ATCC14990
Method: as §1, §2

HCT-116 cells = assay: Cell viability (cytotoxicity, LDH release) assay; assay type: cell-based; conditions: Homo sapiens, 24 h; for viability at 100 µg/mL: read-out: percent of viable cells
Method: The synthesized compounds were also examined at four concentrations (10, 25, 50 and 100 µg/mL) for their cytotoxic effects on human colorectal cancer HCT-116 cells after their incubation together for 24 h.
Cytotoxic potency was examined for a human colon cancer cell line HCT-116 (American Type Culture Collection; Manassas, VA, USA) using various amounts of each compound (10, 25, 50 and 100 µg). Samples were diluted in Dulbecco’s Modified Eagle’s Medium, consisting of 10% Fetal Bovine Serum, and added to cells grown and cultured for 24 h in a 5% CO2-humidified incubator at 37 °C. Then, the activity of lactate dehydrogenase released from damaged cells was determined in the collected supernatant aliquots using an ELISA endpoint assay (Benchmark Plus, Bio-Rad, Hercules, CA, USA). As positive and negative controls, respectively, 0.1% Triton X-100 in the assay medium and the assay medium only were used. Cell viability, shown as mean values ± SDs (n = 3), was expressed as a relative percentage of the OD values determined at 600 nm in compound-treated cells and the control.

[21] = read-out: Mean IC50 (µM) of cytotoxicity
[22] = read-out: Mean IC50 (µg/mL) of cytotoxicity

COc1cccc(C2C(C#N)=C(N)OC(C)=C2C(=O)OCc2ccccc2)c1[N+](=O)[O-] (centres unmarked) [4c, 6-Amino-5-cyano-4-(3-methoxy-2-nitro-phenyl)-2-methyl-4H-pyran-3-carboxylic acid benzyl ester]
IC50 [1]: 2.24 ± 0.05 mM
DPPH Radical Scavenging Effenciency (%) at 1 mg/mL [1]: 57.10 ± 1.56%
EC50 [2]: 1230 ± 67 µM
IZ (mm) (B. cereus (ATCC 14579) [3]): 14.00 ± 1.41 mm
IZ (mm) (B. subtilis (ATCC 6633) [4]): 11.00 ± 1.41 mm
IZ (mm) (E. coli (ATCC 25966) [5]): 2.5 ± 0.71 mm
IZ (mm) (E. faecalis (ATCC 29122) [6]): 10.00 ± 1.41 mm
IZ (mm) [7]: 3.5 ± 0.7 mm
IZ (mm) [8]: 7.5 ± 0.7 mm
IZ (mm) (S. aureus (ATCC 25923) [9]): 15.50 ± 0.71 mm
IZ (mm) (S. enteric (ATCC 43972) [10]): 8.5 ± 0.7 mm
IZ (mm) [11]: 16.65 ± 0.50 mm
IC50 (B. cereus (ATCC 14579) [12]): 44.5 ± 0.83 µM
IC50 (B. subtilis (ATCC 6633) [13]): 46.3 ± 1.68 µM
IC50 (E. coli (ATCC 25966) [14]): 93.7 ± 4.98 µM
IC50 (E. faecalis (ATCC 29122) [15]): 41.1 ± 2.18 µM
IC50 [16]: 112 ± 1.42 µM
IC50 [17]: 85.9 ± 2.61 µM
IC50 (S. aureus (ATCC 25923) [18]): 37 ± 2.02 µM
IC50 (S. enteric (ATCC 43972) [19]): 100 ± 2.61 µM
IC50 [20]: 30.4 ± 1 µM
viability at 100 µg/mL (HCT-116 cells): 11 to 32.5%
IC50 (HCT-116 cells; [21]): 102 ± 4.82 µM
IC50 (HCT-116 cells; [22]): 43 ± 2.03 µg/mL
melting point: 190 to 192 °C

CCOC(=O)C1=C(C)OC(N)=C(C#N)C1c1cccc(-c2ccccc2)c1 (centres unmarked) [4e, 6-Amino-4-biphenyl-3-yl-5-cyano-2-methyl-4H-pyran-3-carboxylic acid ethyl ester]
IC50 [1]: 1.65 ± 0.097 mM
DPPH Radical Scavenging Effenciency (%) at 1 mg/mL [1]: 39.25 ± 1.06%
EC50 [2]: 305 ± 39 µM
IZ (mm) (B. cereus (ATCC 14579) [3]): 23.00 ± 1.41 mm
IZ (mm) (B. subtilis (ATCC 6633) [4]): 20.50 ± 0.71 mm
IZ (mm) (E. coli (ATCC 25966) [5]): 2.7 ± 0.35 mm
IZ (mm) (E. faecalis (ATCC 29122) [6]): 15.50 ± 0.71 mm
IZ (mm) [7]: 2.5 ± 0.7 mm
IZ (mm) [8]: 4.5 ± 0.7 mm
IZ (mm) (S. aureus (ATCC 25923) [9]): 16.50 ± 2.10 mm
IZ (mm) (S. enteric (ATCC 43972) [10]): 3.5 ± 0.7 mm
IZ (mm) [11]: 20.50 mm and 20.50 ± 2.12 mm
IC50 (B. cereus (ATCC 14579) [12]): 33.6 ± 1.58 µM
IC50 (B. subtilis (ATCC 6633) [13]): 37.7 ± 1.58 µM
IC50 (E. coli (ATCC 25966) [14]): 103 ± 3.05 µM
IC50 (E. faecalis (ATCC 29122) [15]): 37.3 ± 2.16 µM
IC50 [16]: 90.7 ± 2.78 µM
IC50 [17]: 88 ± 2.78 µM
IC50 (S. aureus (ATCC 25923) [18]): 34.8 ± 2.16 µM
IC50 (S. enteric (ATCC 43972) [19]): 96.1 ± 2.5 µM
IC50 [20]: 30.8 ± 1.58 µM
viability at 100 µg/mL (HCT-116 cells): 11 to 32.5%
IC50 (HCT-116 cells; [21]): 138 ± 9.78 µM
IC50 (HCT-116 cells; [22]): 49.7 ± 3.53 µg/mL
melting point: 186 to 190 °C
